Reference: US20230150924A1, “NOVEL COMPOUND HAVING CANCER METASTASIS INHIBITORY ACTIVITY, PREPARATION METHOD THEREFOR, AND PHARMACEUTICAL COMPOSITION FOR INHIBITING CANCER METASTASIS AND INVASION OR TREATING COLORECTAL CANCER, COMPRISING COMPOUND” (CELLGENTEK CO., LTD., priority 2019, published 2023)

Legend:
[1] = system: invasion of colorectal cancer cells; assay: In vivo relative invation (invasion; EV and KITENIN controls, no method described); settings: relative to EV (=1); KIT = KITENIN
KAI1 promoter = KAI1 promoter luciferase reporter assay in transfected Caco2 cells; assay type: cell-based, human; settings: 1 μM compound, 16 hours, transfected Caco2 cells, luciferase activity relative to DMSO control (=1); for fold induction at 1 µM: Homo sapiens, Caco-2, 16 h, read-out: Relative KAI promoter activity

| Compound | In vivo relative invation [1] | fold induction at 1 µM (KAI1 promoter) | Relative KAI promoter activity (KAI1 promoter) |
| --- | --- | --- | --- |
| O=C(CNC(=O)c1ccccc1CN1CCN(c2ncccn2)CC1)c1ccccc1 [Example 300, N-(2-oxo-2-phenylethyl)-2-((4-(pyrimidin-2-yl)piperazin-1-yl)methyl)benzamide] | 0.9869 | 1.91 |  |
| O=C(CNC(=O)c1ccccc1OC1CCN(C(=O)c2cc(Cl)cc(Cl)c2)CC1)c1ccccc1 [Example 197, 2-((1-(3,5-dichlorobenzoyl)piperidin-4-yl)oxy)-N-(2-oxo-2-phenylethyl)benzamide] | 1.214 | 0.92 |  |
| O=C(CNC(=O)C1CCCCC1)c1ccc(Cl)cc1 [Example 55, N-(2-(4-chlorophenyl)-2-oxoethyl)cyclohexanecarboxamide] | 1.179 | 0.67 |  |
| COc1ccc(C(=O)NCC(=O)c2ccc(N(C)C)cc2)cc1 [Example 104, N-(2-(4-(dimethylamino)phenyl)-2-oxoethyl)-4-methoxybenzamide] | 1.115 |  | 1.78 |
| O=C(CNS(=O)(=O)Cc1ccccc1)c1ccccc1 [Example 28, N-(2-oxo-2-phenylethyl)-1-phenylmethanesulfonamide] | 1.057 | 1.02 |  |
| CCCN(CCC)Cc1ccc(C(=O)NCC(=O)c2ccccc2)cc1 [Example 272, 4-((dipropylamino)methyl)-N-(2-oxo-2-phenylethyl)benzamide] | 1.23 | 1.59 |  |
| O=C(CNC(=O)c1ccccc1OC1CCN(S(=O)(=O)Cc2ccccc2)CC1)c1ccccc1 [Example 188, 2-((1-(benzylsulfonyl)piperidin-4-yl)oxy)-N-(2-oxo-2-phenylethyl)benzamide] | 1.123 | 0.92 |  |
| CN(Cc1ccc(C(=O)NCC(=O)c2ccccc2)cc1)c1ccccc1 [Example 262, 4-((methyl (phenyl)amino)methyl)-N-(2-oxo-2-phenylethyl)benzamide] | 1.09 | 1.54 |  |
| O=C(CNS(=O)(=O)c1ccc(Cl)cc1)c1ccc(Cl)cc1 [Example 69, 4-chloro-N-(2-(4-chlorophenyl)-2-oxoethyl)benzenesulfonamide] | 1.095 | 0.84 |  |
| O=C(CNC(=O)c1cc(Cl)cc(Cl)c1)c1ccc(Cl)cc1 [Example 79, 3,5-dichloro-N-(2-(4-chlorophenyl)-2-oxoethyl)benzamide] | 1.102 | 1.03 |  |
| O=C(CNC(=O)c1ccc(OC(F)(F)F)cc1)c1ccccc1 [Example 38, N-(2-oxo-2-phenylethyl)-4-(trifluoromethoxy)benzamide] | 1.119 | 1.57 |  |
| COc1cc(OC)cc(C(=O)NCC(=O)c2ccccc2)c1 [Example 42, 3,5-dimethoxy-N-(2-oxo-2-phenylethyl)benzamide] | 1.525 | 1.12 |  |
| O=C(CNC(=O)c1ccccc1OC1CCN(C(=O)c2cccc(Cl)c2)CC1)c1ccccc1 [Example 157, 2-((1-(3-chlorobenzoyl)piperidin-4-yl)oxy)-N-(2-oxo-2-phenylethyl)benzamide] | 1.089 | 1.05 |  |
| CCCCN(CC)Cc1cccc(C(=O)NCC(=O)c2cccc(OC)c2)c1 [Example 290, 3-((butyl (ethyl)amino)methyl)-N-(2-(3-methoxyphenyl)-2-oxoethyl)benzamide] | 0.9234 | 1.23 |  |
| O=C(CNC(=O)c1ccccc1OC1CCN(C(=O)c2ccc(F)c(F)c2)CC1)c1ccccc1 [Example 196, 2-((1-(3,4-difluorobenzoyl)piperidin-4-yl)oxy)-N-(2-oxo-2-phenylethyl)benzamide] | 1.113 | 0.84 |  |
| CCCCC(=O)NCC(=O)c1ccc(N2CCOCC2)cc1 [Example 145, N-(2-(4-morpholinophenyl)-2-oxoethyl)pentanamide] | 1.433 | 1.1 |  |
| CCC(=O)N1CCC(Oc2ccccc2C(=O)NCC(=O)c2ccccc2)CC1 [Example 164, N-(2-oxo-2-phenylethyl)-2-((1-propionylpiperidin-4-yl)oxy)benzamide] | 1.088 | 0.98 |  |
| COc1cccc(C(=O)CNC(=O)c2cccc(CN3CC(C)OC(C)C3)c2)c1 (stereo not drawn) [Example 295, 3-((2,6-dimethylmorpholino)methyl)-N-(2-(3-methoxyphenyl)-2-oxoethyl)benzamide] | 1.311 | 1.52 |  |
| O=C(CNC(=O)c1cccc(C(F)(F)F)c1)c1ccc(Cl)cc1 [Example 74, N-(2-(4-chlorophenyl)-2-oxoethyl)-3-(trifluoromethyl)benzamide] | 1.17 | 0.78 |  |
| O=C(CNC(=O)c1ccc(F)c(F)c1)c1ccccc1 [Example 35, 3,4-difluoro-N-(2-oxo-2-phenylethyl)benzamide] | 0.8811 | 1.28 |  |

| Compound | In vivo relative invation [1] | fold induction at 1 µM (KAI1 promoter) | Relative KAI promoter activity (KAI1 promoter) |
| --- | --- | --- | --- |
| COc1cc(C)ccc1NC(=O)COc1ccccc1C(=O)NCC(=O)c1ccccc1 [Example 206, 2-(2-((2-methoxy-4-methylphenyl)amino)-2-oxoethoxy)-N-(2-oxo-2-phenylethyl)benzamide] | 1.11 | 1.05 |  |
| Cc1ccc(S(=O)(=O)N2CCC(Oc3ccccc3C(=O)NCC(=O)c3ccccc3)CC2)cc1 [Example 185, N-(2-oxo-2-phenylethyl)-2-((1-tosylpiperidin-4-yl)oxy)benzamide] | 1.114 | 1.12 |  |
| C/C=C/C(=O)NCC(=O)c1ccccc1 [Example 8, (E)-N-(2-oxo-2-phenylethyl)but-2-enamide] | 1.077 | 1.15 |  |
| O=C(CNC(=O)c1ccc(Cl)cc1)c1ccc(Cl)cc1 [Example 87, 4-chloro-N-(2-(4-chlorophenyl)-2-oxoethyl)benzamide] | 1.218 | 0.91 |  |
| O=C(CNS(=O)(=O)c1ccc(Cl)cc1)c1ccc(N2CCOCC2)cc1 [Example 147, 4-chloro-N-(2-(4-morpholinophenyl)-2-oxoethyl)benzenesulfonamide] | 0.9524 | 1.1 |  |
| O=C(CNC(=O)c1ccccc1OC1CCN(C(=O)c2ccccc2Cl)CC1)c1ccccc1 [Example 156, 2-((1-(2-chlorobenzoyl)piperidin-4-yl)oxy)-N-(2-oxo-2-phenylethyl)benzamide] | 1.158 | 0.99 |  |
| O=C(CNC(=O)C1CCC1)c1ccc(N2CCOCC2)cc1 [Example 144, N-(2-(4-morpholinophenyl)-2-oxoethyl)cyclobutanecarboxamide] | 1.284 | 1.08 |  |
| C=CCNC(=O)COc1ccccc1C(=O)NCC(=O)c1ccccc1 [Example 203, 2-(2-(allylamino)-2-oxoethoxy)-N-(2-oxo-2-phenylethyl)benzamide] | 1.178 | 1.05 |  |
| C=CCN(CC=C)Cc1ccccc1C(=O)NCC(=O)c1ccccc1 [Example 303, 2-((diallylamino)methyl)-N-(2-oxo-2-phenylethyl)benzamide] | 1.138 | 1.85 |  |
| O=C(CNC(=O)c1cccc([N+](=O)[O-])c1)c1ccccc1 [Example 34, 3-nitro-N-(2-oxo-2-phenylethyl)benzamide] | 1.103 | 1.34 |  |
| O=C(CNC(=O)c1ccc(F)cc1)c1cccnc1 [Example 133, 4-fluoro-N-(2-oxo-2-(pyridin-3-yl)ethyl)benzamide] | 1.32 | 1.15 |  |
| C#CN(C)Cc1ccc(C(=O)NCC(=O)c2ccccc2)cc1 [Example 275, 4-((ethynyl(methyl)amino)methyl)-N-(2-oxo-2-phenylethyl)benzamide] | 1.146 | 6.85 |  |
| CC(C)N(C)Cc1cccc(C(=O)NCC(=O)c2ccccc2)c1 [Example 233, 3-((isopropyl(methyl)amino)methyl)-N-(2-oxo-2-phenylethyl)benzamide] | 1.026 | 1.15 |  |
| COc1ccc(C(=O)NCC(=O)c2ccc(N(C)C)cc2)cc1 [Example 97, N-(2-(4-(dimethylamino)phenyl)-2-oxoethyl)-4-methoxybenzamide] | 1.024 | 1.8 |  |
| O=C(COc1ccccc1C(=O)NCC(=O)c1ccccc1)Nc1cccc(Br)c1 [Example 225, 2-(2-((3-bromophenyl)amino)-2-oxoethoxy)-N-(2-oxo-2-phenylethyl)benzamide] | 1.235 | 1.35 |  |
| O=C(CNC(=O)c1ccccc1OC1CCN(C(=O)c2ccccc2C(F)(F)F)CC1)c1ccccc1 [Example 191, N-(2-oxo-2-phenylethyl)-2-((1-(2-(trifluoromethyl)benzoyl)piperidin-4-yl)oxy)benzamide] | 1.106 | 0.84 |  |
| O=C(COc1ccccc1C(=O)NCC(=O)c1ccccc1)Nc1ccc2c(c1)OCO2 [Example 217, 2-(2-(benzo [d] [1,3]dioxol-5-ylamino)-2-oxoethoxy)-N-(2-oxo-2-phenylethyl)benzamide] | 1.266 | 1.18 |  |
| O=C(CNS(=O)(=O)c1ccc(F)cc1)c1ccc(N2CCOCC2)cc1 [Example 146, 4-fluoro-N-(2-(4-morpholinophenyl)-2-oxoethyl)benzenesulfonamide] | 0.7474 | 1.16 |  |
| O=C(CNC(=O)c1ccccc1Cl)c1ccc(N2CCOCC2)cc1 [Example 138, 2-chloro-N-(2-(4-morpholinophenyl)-2-oxoethyl)benzamide] | 1.258 | 1.15 |  |
